From patent US9133200B2, “Imidazo[1,2-b]pyridazine and imidazo[4,5-b]pyridine derivatives as JAK inhibitors” (Almirall, S.A., priority 2010, dated 2015)

What was measured:
Format in all cases: biochemical
[1] = target: T1, human JAK3 (aa 795-1124) (Homo sapiens, UniProt P52333); assay: In vitro JAK kinase assay (TR-FRET), JAK3; conditions: catalytic domain GST-fusion; ATP 0.6 μM; poly (GT)-Biotin 140 nM; 30 minutes at room temperature
T1 construct: JAK3 (aa 795-1124); GST (N); purchased Carna Biosciences; host or cells: baculovirus expression system
T1 sequence (P52333 795-1124): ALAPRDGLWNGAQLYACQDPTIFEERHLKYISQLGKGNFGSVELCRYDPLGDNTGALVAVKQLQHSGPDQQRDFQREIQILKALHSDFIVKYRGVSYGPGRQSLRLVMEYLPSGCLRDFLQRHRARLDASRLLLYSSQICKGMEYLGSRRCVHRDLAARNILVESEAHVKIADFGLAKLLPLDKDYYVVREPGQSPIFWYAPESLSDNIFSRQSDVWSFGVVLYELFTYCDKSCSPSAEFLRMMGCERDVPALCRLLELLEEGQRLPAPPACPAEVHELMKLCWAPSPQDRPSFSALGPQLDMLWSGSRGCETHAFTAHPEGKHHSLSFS
Protocol: (§1) Compounds were screened for their ability to inhibit JAK1, JAK2 and JAK3 using the assays as indicated below.
(§2) The catalytic domains of human JAK1 (aa 850-1154), JAK2 (aa 826-1132), JAK3 (aa 795-1124) and Tyk2 (aa 871-1187) were expressed as N-terminal GST-fusion proteins using a baculovirus expression system and were purchased from Carna Biosciences. The enzymatic activity was assayed using as substrate a biotinylated peptide, poly (GT)-Biotin (CisBio). The peptide concentration in the reactions was 60 nM for JAK1, […], 140 nM for JAK3 and 50 nM for Tyk2. The degree of phosphorylation was detected by TR-FRET (time-resolved fluorescence energy transfer).
(§3) IC50s of compounds were measured for each kinase in a reaction mixture containing the enzyme, ATP and the peptide in 8 mM MOPS (pH 7.0), 10 mM MgCl2, 0.05% […], 0.45 mg/ml BSA. The ATP concentration in the reactions was 3 μM for JAK1, 0.2 μM for JAK2, 0.6 μM for JAK3 and 1.8 μM for Tyk2. The enzymatic reactions took place for 30 minutes at room temperature. Then, the reactions were stopped with 20 μL of quench detection buffer (50 mM HEPES, 0.5 M KF, EDTA 0.25 M, 0.1% (w/v) BSA, pH 7.5) containing 0.115 μg/mL of anti-phosphoTyr (PT66)-Cryptate (CisBio) and a variable concentration of SA-XL665 (CisBio) to keep the SA-B ratio constant. Incubate for 3 h and read on Victor 2V spectrofluorometer (PerkinElmer) set to read fluorescence resonance energy transfer.

[2] = target: T2, human JAK2 (aa 826-1132) (Homo sapiens, UniProt O60674); assay: In vitro JAK kinase assay (TR-FRET), JAK2; conditions: catalytic domain GST-fusion; ATP 0.2 μM; poly (GT)-Biotin; 30 minutes at room temperature
T2 construct: JAK2 (aa 826-1132); GST (N); purchased Carna Biosciences; host or cells: baculovirus expression system
T2 sequence (O60674 826-1132): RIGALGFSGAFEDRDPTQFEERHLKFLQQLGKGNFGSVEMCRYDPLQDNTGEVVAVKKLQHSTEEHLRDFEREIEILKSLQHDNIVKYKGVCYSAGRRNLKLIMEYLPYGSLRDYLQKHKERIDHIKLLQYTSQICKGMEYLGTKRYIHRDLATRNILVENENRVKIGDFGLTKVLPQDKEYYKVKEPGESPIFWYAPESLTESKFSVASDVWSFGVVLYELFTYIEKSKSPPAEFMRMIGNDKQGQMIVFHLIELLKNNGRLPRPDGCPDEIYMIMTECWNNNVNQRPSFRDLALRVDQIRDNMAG
Protocol: as §1, §2, §3

[3] = target: T3, human JAK1 (aa 850-1154) (Homo sapiens, UniProt P23458); assay: In vitro JAK kinase assay (TR-FRET), JAK1; conditions: catalytic domain GST-fusion; ATP 3 μM; poly (GT)-Biotin 60 nM; 30 minutes at room temperature
T3 construct: human JAK1 (aa 850-1154); GST (N); purchased Carna Biosciences; host or cells: baculovirus expression system
T3 sequence (P23458 850-1154): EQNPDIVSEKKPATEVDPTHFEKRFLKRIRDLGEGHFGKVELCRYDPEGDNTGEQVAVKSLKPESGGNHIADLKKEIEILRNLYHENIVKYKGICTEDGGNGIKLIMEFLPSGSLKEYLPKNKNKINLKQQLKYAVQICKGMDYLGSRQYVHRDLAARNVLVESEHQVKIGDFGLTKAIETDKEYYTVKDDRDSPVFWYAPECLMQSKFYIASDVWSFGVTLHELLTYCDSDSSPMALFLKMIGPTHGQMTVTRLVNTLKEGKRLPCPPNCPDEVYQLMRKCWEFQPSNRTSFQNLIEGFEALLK
Protocol: as §1, §2, §3

| IC50 [1] [nM] | IC50 [2] [nM] | IC50 [3] [nM] | Structure (SMILES) |
| --- | --- | --- | --- |
| < 100 | < 100 | < 100 | C[C@H](Nc1ccc2ncc(-c3cc(Cl)c[nH]c3=O)n2n1)c1ccc(F)cn1 [Example 8, 5-Chloro-3-(6-{[(1S)-1-(5-fluoropyridin-2-yl)ethyl]amino}imidazo[1,2-b]pyridazin-3-yl)pyridin-2(1H)-one] |
| < 100 | < 100 | < 100 | Cc1cc2ncc(-c3ccc[nH]c3=O)n2nc1N[C@@H](C)c1ccc(F)cn1 [Example 9, 3-(6-{[(1S)-1-(5-Fluoropyridin-2-yl)ethyl]amino}-7-methylimidazo[1,2-b]pyridazin-3-yl)pyridin-2(1H)-one] |
| < 100 | < 100 | < 100 | C[C@H](Nc1ccc2ncn(-c3cc(Cl)c[nH]c3=O)c2n1)c1ccc(F)cn1 [Example 13, 5-Chloro-3-(5-{[(1S)-1-(5-fluoropyridin-2-yl)ethyl]amino}-3H-imidazo[4,5-b]pyridin-3-yl)pyridin-2(1H)-one] |

The remaining lines, values behind:

| Structure (SMILES) | IC50 [1] [nM] | IC50 [2] [nM] | IC50 [3] [nM] |
| --- | --- | --- | --- |
| N#CCC(=O)N1CCC[C@@H](Nc2ccc3ncc(-c4ccc[nH]c4=O)n3n2)C1 [Example 1, 3-Oxo-3-((3R)-3-{[3-(2-oxo-1,2-dihydropyridin-3-yl)imidazo[1,2-b]pyridazin-6-yl]amino}piperidin-1-yl)propanenitrile] | < 100 | < 100 | < 100 |
| C[C@@H](Nc1ccc2ncc(-c3ccc[nH]c3=O)n2n1)c1ccc(F)cn1 [Example 4, 3-(6-{[(1R)-1-(5-Fluoropyridin-2-yl)ethyl]amino}imidazo[1,2-b]pyridazin-3-yl) pyridin-2(1H)-one] | < 100 | < 100 | 100 to 1000 |
| C[C@H](Nc1ccc2ncc(-c3ccc[nH]c3=O)n2n1)c1ncc(F)cn1 [Example 5, 3-(6-{[(1S)-1-(5-Fluoropyrimidin-2-yl)ethyl]amino}imidazo[1,2-b]pyridazin-3-yl)pyridin-2(1H)-one] | < 100 | < 100 | < 100 |
| C[C@H](Nc1ccc2ncc(-c3ccn[nH]c3=O)n2n1)c1ccccc1 [Example 6, 4-(6-{[(1S)-1-Phenylethyl]amino}imidazo[1,2-b]pyridazin-3-yl)pyridazin-3(2H)-one] | < 100 | < 100 | 100 to 1000 |
